From ChEMBL document CHEMBL1129613, “Design, synthesis, and biological evaluation of ellipticine-estradiol conjugates” (J Med Chem, 1996)

Key:
IGROV-1 [1] = experiment: Cytotoxic effect on ovarian cancer IGROVI cells; format: functional; settings: Homo sapiens
MOLT-4 [2] = experiment: Cytotoxic effect on leukemia MOLT-4 cells; format: functional; settings: Homo sapiens
LOX IMVI = experiment: Cytotoxic effect on growth inhibition of melanoma LOX IMVI cells; format: functional; settings: Homo sapiens
MCF7 [3] = experiment: Cytotoxic effect on growth inhibition of breast cancer MCF-7 cells; format: functional; settings: Homo sapiens
MCF7 [4] = experiment: Cytotoxic effect of growth inhibition of breast cancer MCF-7/ADR-RES cells; format: functional; settings: Homo sapiens
MDA-MB-231 = experiment: Cytotoxic effect on growth inhibition of breast cancer MDA-MB-231/ATCC cells; format: functional; settings: Homo sapiens
NCI-H322M [5] = experiment: Cytotoxic effect on growth inhibition of nonsmall cell lung cancer NCI-H322M cells; format: functional; settings: Homo sapiens
PC-3 = experiment: Cytotoxic effect on growth inhibition of prostate cancer PC-3 cells; format: functional; settings: Homo sapiens
SN12C = experiment: Cytotoxic effect on growth inhibition of renal cancer SN12C cells; format: functional; settings: Homo sapiens
U-251 = experiment: Cytotoxic effect on growth inhibition of CNS cancer U251 cells; format: functional; settings: Homo sapiens
[6] = molecular target: DNA topoisomerase 2-alpha (Homo sapiens, UniProt P11388); experiment: Inhibitory activity against topoisomerase II determined in catenation inhibition assay
HCT-116 = experiment: Cytotoxic effect on growth inhibition of colon cancer HCT116 cells; format: functional; settings: Homo sapiens
Hs-578T = experiment: Cytotoxic effect on growth inhibition of breast cancer HS 578T cells; format: functional; settings: Homo sapiens
[7] = molecular target: Estrogen receptor (Rattus norvegicus) (UniProt P06211+Q62986); experiment: Relative binding affinity for estrogen receptor; format: protein assay
IGROV-1 [8] = experiment: Cytotoxic effect on growth inhibition of ovarian cancer IGROVI cells; format: functional; settings: Homo sapiens
NCI-H322M [9] = experiment: Cytotoxic effect on nonsmall cell lung cancer NCI-H322M cells; format: functional; settings: Homo sapiens
MOLT-4 [10] = experiment: Cytotoxic effect on growth inhibition of leukemia MOLT-4 cells; format: functional; settings: Homo sapiens

Chain of DNA topoisomerase 2-alpha (P11388 whole entry): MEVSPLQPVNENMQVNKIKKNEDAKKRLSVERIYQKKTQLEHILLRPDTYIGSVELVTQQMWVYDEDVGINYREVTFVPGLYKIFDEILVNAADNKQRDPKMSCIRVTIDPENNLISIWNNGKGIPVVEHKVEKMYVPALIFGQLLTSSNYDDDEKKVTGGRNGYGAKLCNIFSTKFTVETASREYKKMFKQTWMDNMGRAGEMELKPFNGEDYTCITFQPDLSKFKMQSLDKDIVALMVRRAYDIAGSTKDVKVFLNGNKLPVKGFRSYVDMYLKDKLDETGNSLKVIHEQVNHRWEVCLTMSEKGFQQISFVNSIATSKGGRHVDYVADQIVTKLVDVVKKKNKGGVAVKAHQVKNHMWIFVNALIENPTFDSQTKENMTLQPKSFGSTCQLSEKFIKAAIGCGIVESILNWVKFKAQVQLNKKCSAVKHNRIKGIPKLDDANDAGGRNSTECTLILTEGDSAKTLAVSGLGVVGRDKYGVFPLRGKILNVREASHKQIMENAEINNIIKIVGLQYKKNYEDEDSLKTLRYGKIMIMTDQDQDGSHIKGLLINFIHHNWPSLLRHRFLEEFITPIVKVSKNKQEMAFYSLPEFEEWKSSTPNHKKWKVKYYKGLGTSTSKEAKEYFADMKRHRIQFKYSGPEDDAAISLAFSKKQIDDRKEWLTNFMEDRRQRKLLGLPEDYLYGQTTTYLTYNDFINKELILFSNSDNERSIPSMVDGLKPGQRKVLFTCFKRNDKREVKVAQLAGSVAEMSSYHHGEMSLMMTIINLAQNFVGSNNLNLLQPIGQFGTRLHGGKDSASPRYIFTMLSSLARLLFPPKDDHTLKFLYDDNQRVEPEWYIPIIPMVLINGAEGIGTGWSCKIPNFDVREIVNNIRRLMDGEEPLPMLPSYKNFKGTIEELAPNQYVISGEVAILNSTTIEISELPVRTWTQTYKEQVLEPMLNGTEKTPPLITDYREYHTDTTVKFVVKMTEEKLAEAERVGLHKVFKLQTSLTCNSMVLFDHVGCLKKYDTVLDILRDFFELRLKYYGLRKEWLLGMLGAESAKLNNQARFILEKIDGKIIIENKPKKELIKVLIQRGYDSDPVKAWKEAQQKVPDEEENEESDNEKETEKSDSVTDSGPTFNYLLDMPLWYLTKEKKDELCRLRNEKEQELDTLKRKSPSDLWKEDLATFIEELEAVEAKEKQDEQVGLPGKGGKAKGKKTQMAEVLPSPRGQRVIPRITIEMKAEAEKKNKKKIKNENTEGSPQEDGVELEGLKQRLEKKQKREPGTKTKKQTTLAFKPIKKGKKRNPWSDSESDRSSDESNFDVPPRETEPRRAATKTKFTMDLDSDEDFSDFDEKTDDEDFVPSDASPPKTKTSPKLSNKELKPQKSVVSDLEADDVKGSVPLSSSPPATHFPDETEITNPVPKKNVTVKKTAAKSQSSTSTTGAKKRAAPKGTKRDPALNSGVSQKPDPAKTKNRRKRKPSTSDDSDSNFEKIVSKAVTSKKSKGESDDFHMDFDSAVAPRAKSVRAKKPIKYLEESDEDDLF

Row | SMILES | GI50 (IGROV-1 [1]) | GI50 (MOLT-4 [2]) | GI50 (LOX IMVI) | GI50 (MCF7 [3]) | GI50 (MCF7 [4]) | GI50 (MDA-MB-231) | GI50 (NCI-H322M [5]) | GI50 (PC-3) | GI50 (SN12C) | GI50 (U-251) | IC50 [6] | GI50 (HCT-116) | GI50 (Hs-578T) | relative binding affinity (RBA) [7] | GI50 (IGROV-1 [8]) | GI50 (NCI-H322M [9]) | GI50 (MOLT-4 [10])
1 | Cc1c2cnccc2c(C)c2c1c1ccccc1n2CC(=O)NCCCCCCNC(=O)C[C@]1(O)CC[C@H]2[C@@H]3CCc4cc(O)ccc4[C@H]3CC[C@@]21C | > 100 µM | 46.3 µM | 50.9 µM | > 100 µM | > 100 µM | > 100 µM | 71.4 µM | 57.1 µM | > 100 µM | 72.4 µM | > 200 µM | 39.9 µM | 46.8 µM |  |  |  | 
2 | CC(C)(C)OC(=O)NCCCCCCNC(=O)C[C@]1(O)CC[C@H]2[C@@H]3CCc4cc(O)ccc4[C@H]3CC[C@@]21C |  |  |  |  |  |  |  |  |  |  |  |  |  | 0.056 |  |  | 
3 | CCOC(=O)C[C@]1(O)CC[C@H]2[C@@H]3CCc4cc(O)ccc4[C@H]3CC[C@@]21C |  |  |  |  |  |  |  |  |  |  |  |  |  | 3.66 |  |  | 
4 | Cc1c2ccncc2c(C)c2c1[nH]c1ccccc12 [ELLIPTECINE] |  | 0.38 µM | 0.56 µM | 0.71 µM | 0.74 µM |  | 0.31 µM |  | 0.73 µM | 0.93 µM |  | 0.29 µM |  |  | 0.86 µM |  | 
5 | Cc1c2c(c(C)c3c1[nH]c1ccccc13)CN(C(=O)NCCCCCCNC(=O)C[C@]1(O)CC[C@H]3[C@@H]4CCc5cc(O)ccc5[C@H]4CC[C@@]31C)C=C2 |  | 2.9 µM | 7.97 µM | 3.39 µM | 9.96 µM | 19.7 µM |  | 3.51 µM | 9.56 µM | 7.64 µM | 24.1 µM | 3.55 µM | 16.6 µM | 0.132 | 8.53 µM | 2.68 µM | 
6 | Cc1c2ccncc2c(C)c2c1[nH]c1ccc(C(=O)NCCCCCCNC(=O)C[C@]3(O)CC[C@H]4[C@@H]5CCc6cc(O)ccc6[C@H]5CC[C@@]43C)cc12 |  |  | 51.4 µM |  | > 100 µM | 34.7 µM | 28 µM | 74 µM | > 100 µM | 55.9 µM | > 200 µM | 31.2 µM | > 100 µM | 0.303 | > 100 µM |  | 38.3 µM
7 | C[C@]12CC[C@@H]3c4ccc(O)cc4CC[C@H]3[C@@H]1CC[C@@]2(O)CC(=O)NCCCCCCN |  |  |  |  |  |  |  |  |  |  |  |  |  | 0.041 |  |  | 
8 | C[C@]12CC[C@@H]3c4ccc(O)cc4CC[C@H]3[C@@H]1CC[C@@]2(O)CC(=O)O |  |  |  |  |  |  |  |  |  |  |  |  |  | 0.039 |  |  | 
